{
  "source": "paper PMC6232179",
  "about": "(Scientific Reports, 2018)",
  "key": {"[1]": {"test_system": "IRE1α", "experiment": "IRE1α XBP1 splicing luciferase reporter, HEK293 cells", "assay_type": "cell-based, human", "conditions": "for COX-2-dependent stimulation of XBP1 mRNA splicing (IRE1α activity): HEK293, COX-2 siRNA vs scrambled, 24 hours, thapsigargin 0.5 µM, tunicamycin 5 µg/ml, DTT 1 mM, n = 16, Fig. 1D", "protocol": "HEK293 cells (human embryonic kidney cells; https://web.expasy.org/cellosaurus/CVCL_0045) were maintained under standard tissue culture conditions, including 5% CO2 with high humidity. Tissue culture media included 10% fetal bovine serum in DMEM (Sigma). Cell transfection, analysis of cell viability and luciferase assays were carried out as described previously.\nThe pRL-IXFL XBP1 splicing reporter was a generous gift from Dr. R. Kaufman (Sanford Burnham Medical Discovery Institute) and contains an internal Renilla control and the nucleotide sequence encoding XBP1 followed by firefly luciferase separated by an internal ribosomal entry site (IRES) initiation region. This reporter will only generate firefly luciferase if the XBP1 sequence is spliced, bringing the firefly luciferase sequence to the correct reading frame."}, "[2]": {"molecular_target": "T1, IRE1-NLD (ER luminal domain of IRE1α) (Homo sapiens, UniProt O75460)", "T1 construct": "the ER luminal domain of IRE1α (IRE1-NLD); His6 (C); KDEL (ER retention signal) (C); made in house; host or cells: COS-1 cells", "T1 sequence (O75460 19-443 limits assumed)": "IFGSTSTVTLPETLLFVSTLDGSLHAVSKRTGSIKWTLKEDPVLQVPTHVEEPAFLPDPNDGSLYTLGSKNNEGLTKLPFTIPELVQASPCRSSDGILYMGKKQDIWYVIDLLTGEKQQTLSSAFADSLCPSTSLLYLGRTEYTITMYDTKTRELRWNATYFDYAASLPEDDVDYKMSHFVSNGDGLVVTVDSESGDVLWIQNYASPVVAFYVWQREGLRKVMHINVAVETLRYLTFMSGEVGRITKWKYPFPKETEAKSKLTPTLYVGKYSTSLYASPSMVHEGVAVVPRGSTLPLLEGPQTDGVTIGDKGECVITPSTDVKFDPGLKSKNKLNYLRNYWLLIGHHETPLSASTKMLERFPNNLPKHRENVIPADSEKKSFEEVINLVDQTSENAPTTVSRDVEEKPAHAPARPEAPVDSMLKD", "experiment": "SPR, binding to immobilized IRE1-NLD", "conditions": "CM5 chip, 10 mM Hepes pH 7.4, 150 mM NaCl, 0.005% P20, 30 μl/min, triplicate, 10 µM COX-2, BiP, PDIA6 flowed", "protocol": "Briefly, a CM5 chip was activated using a 1:1 dilution of EDC:NHS as previously described. Purified protein was diluted in 10 mM NaAc, pH 5 and injected over the activated CM5 chip followed by the blocking solution of 1 M ethanolamine, pH 9. A reference lane with no ligand coupled was generated to subtract background binding. The running buffer was composed of 10 mM Hepes, pH 7.2, 150 mM NaCl, 1 mM EDTA, 0.005% P20, and 2% ethanol. […] For each experiment, the signal was corrected against the control surface response to eliminate any refractive index changes due to buffer change. The data were collected at 25 °C at a flow rate of 30 µl/min to minimize mass transfer effects. Positive (cyclophilin) and negative controls (carbonic anhydrase) were included. Kinetic analysis was performed using the BiaEvaluation software (GE Life Sciences) with a 1:1 Langmuir binding model. Association and dissociation rates and affinity (KD) were calculated for each experiment and averaged. The binding response signals in RUs were continuously recorded and presented graphically as a function of time. For SPR analysis of COX-2 interaction with IRE1-NLD, the carboxymethylated dextran (CMD) surface of a CM5 chip was activated using a 1:1 dilution of EDC:NHS as previously described. Purified IRE1-NLD was captured at a flow rate of 5 μl/min to a total of ~1500 Response Units (RU). […]"}, "[3]": {"test_system": "IRE1-NLD", "experiment": "MST, COX-2 titrated to RED-labeled IRE1-NLD", "assay_type": "binding", "conditions": "red labelled IRE1-NLD, Suppl. Fig. S9", "protocol": "(§1) MST was carried out using a Monolith NT.115 instrument (NanoTemper). To evaluate COX-2 binding to IRE1-NLD, an increasing concentration of purified COX-2 protein (0–10 µM) was incubated with RED-labeled purified IRE1-NLD protein (NanoTemper; as per manufacturer’s protocol). The reverse was also performed, with RED-labeled purified COX-2 incubated with an increasing concentration of purified IRE1-NLD. Positive (cyclophilin A) and negative controls (carbonic anhydrase) were included. […] Positive (cyclophilin A) and negative controls (carbonic anhydrase) were included. […] Experiments were done in triplicate and data evaluation was performed using the Monolith software (NanoTemper)."}, "[4]": {"test_system": "IRE1α", "experiment": "Co-immunoprecipitation of endogenous COX-2 and IRE1α, HEK293 cells", "assay_type": "binding, human", "conditions": "HEK293, triplicate, Fig. 5A", "protocol": "For immunoprecipitation experiments, HEK293 (endogenous IRE1α) or COS-1 cells transfected with the pED-IRE1-NLD-His6-KDEL expression vector were harvested by washing with cold Tris-buffered saline followed by scraping into cold lysis buffer (25 mM Tris-Cl, pH 8.0, 150 mM NaCl, 0.5% Nonidet P-40, and 0.5% sodium deoxycholate). The lysate was incubated on ice for 30 min followed by centrifugation and 30 min incubation at 4 °C with 60 µl of 10% slurry of Protein A/G Sepharose beads (Qiagen) to preclear the lysate. The beads were centrifuged briefly to pellet and washed with five times of cold lysis buffer while the supernatant was transferred to a new Eppendorf tube. For immunoprecipitation of IRE1α, IRE1-NLD or COX-2, 2 µl of anti-IRE1α, anti-His-tag antibodies, COX-2 antibody or an IgG control were added to the supernatant and incubated with rotation overnight at 4 °C. To pull-down the antibody, 100 µl of 10% slurry of Protein A/G Sepharose beads was added and the lysate was incubated 4 hours with rotation at 4 °C. The beads were centrifuged briefly to pellet and washed five times with 1 ml cold lysis buffer. The beads were pelleted, re-suspended in 100 µl SDS-PAGE sample buffer, with 20 µl separated on SDS-PAGE (10% acrylamide), followed by Immunoblot analysis using anti-IRE1α, anti-COX-2, or anti-His-tag antibodies. Experiments were done in triplicate."}, "[5]": {"molecular_target": "T2, COX-2 (Homo sapiens, UniProt P35354)", "T2 construct": "COX-2 cDNA was purchased from OriGene and cloned into pET-22b containing a 6His-tag; 6His; made in house; host or cells: LEMO21 E. coli", "T2 sequence (P35354 18-604)": "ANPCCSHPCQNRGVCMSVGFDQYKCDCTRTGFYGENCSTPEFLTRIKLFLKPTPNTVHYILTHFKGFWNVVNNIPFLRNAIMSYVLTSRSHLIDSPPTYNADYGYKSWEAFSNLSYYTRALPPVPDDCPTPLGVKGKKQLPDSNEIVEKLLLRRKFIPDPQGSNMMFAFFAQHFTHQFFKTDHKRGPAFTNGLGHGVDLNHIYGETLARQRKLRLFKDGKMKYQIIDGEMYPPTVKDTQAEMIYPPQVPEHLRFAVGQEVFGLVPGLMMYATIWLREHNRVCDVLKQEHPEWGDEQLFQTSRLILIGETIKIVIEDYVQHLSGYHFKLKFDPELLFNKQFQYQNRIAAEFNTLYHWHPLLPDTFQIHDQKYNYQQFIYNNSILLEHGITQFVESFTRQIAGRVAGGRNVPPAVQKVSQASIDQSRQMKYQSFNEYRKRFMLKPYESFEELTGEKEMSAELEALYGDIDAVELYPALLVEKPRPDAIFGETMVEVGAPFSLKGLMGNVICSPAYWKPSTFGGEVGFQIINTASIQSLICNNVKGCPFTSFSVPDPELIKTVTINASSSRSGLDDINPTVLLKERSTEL", "assay_type": "binding", "protocol": "as §1"}, "[6]": {"test_system": "COX-2 peroxidase", "conditions": "stated without reference; cited from earlier work", "source_text": "Next, we carried out XBP1 splicing reporter assays in the presence of inhibitors of COX-2 cyclooxygenase or peroxidase activity."}},
  "note": "Where two headings read alike, the source gives them in different places.",
  "data": [
    {"compound": "O[C@@H](CS)[C@@H](O)CS", "note": "[DTT]", "values": [
      {"measurement": "COX-2-dependent stimulation of XBP1 mRNA splicing (IRE1α activity)", "setting": "[1]", "result": "did not have any effect on COX-2-dependent stimulation of XBP1 mRNA splicing"}
    ]},
    {"compound": "Cc1ccc(-c2cc(C(F)(F)F)nn2-c2ccc(S(N)(=O)=O)cc2)cc1", "note": "[celecoxib]", "values": [
      {"measurement": "XBP1 splicing reporter activity with COX-2 inhibitor", "setting": "[1]", "result": "had no effect on the XBP1 splicing activity in the absence or presence of COX-2 silencing"}
    ]},
    {"compound": "C/C=C(/C)C(=O)O[C@H]1C(C)=C2[C@H]([C@@H]1OC(=O)CCCCCCC)[C@@](C)(OC(C)=O)C[C@H](OC(=O)CCC)[C@@]1(O)[C@H]2OC(=O)[C@@]1(C)O", "note": "[thapsigargin]", "values": [
      {"measurement": "COX-2-dependent stimulation of XBP1 mRNA splicing (IRE1α activity)", "setting": "[1]", "result": "did not have any effect on COX-2-dependent stimulation of XBP1 mRNA splicing"}
    ]},
    {"compound": "COX-2: purified COX-2 protein, 6His-tag, expressed in LEMO21 E. coli cells", "values": [
      {"measurement": "Kd", "setting": "[2]", "result": 880, "unit": "nM"},
      {"measurement": "binding to IRE1-NLD (MST), wild-type and H374Y", "setting": "[3]", "result": "bound to IRE1-NLD"},
      {"measurement": "co-immunoprecipitation with endogenous IRE1α", "setting": "[4]", "result": "co-immunoprecipitated with endogenous IRE1α"}
    ]},
    {"compound": "sodium ortho-vanadate", "values": [
      {"measurement": "XBP1 splicing reporter activity with COX-2 inhibitor", "setting": "[1]; 20 μM cyclosporine + inhibitor, in absence or presence of COX-2 silencing, Suppl. Fig. S5B", "result": "significant reduction of XBP1 splicing in the presence of COX-2, but not when COX-2 was silenced"},
      {"measurement": "effect on cyclosporine binding to COX-2", "setting": "[5]", "result": "not affected"},
      {"measurement": "COX-2 peroxidase inhibition", "setting": "[6]", "result": "an inhibitor of COX-2 peroxidase activity"}
    ]},
    {"compound": "tunicamycin", "values": [
      {"measurement": "COX-2-dependent stimulation of XBP1 mRNA splicing (IRE1α activity)", "setting": "[1]", "result": "did not have any effect on COX-2-dependent stimulation of XBP1 mRNA splicing"}
    ]}
  ]
}
